Results published in the NIST ThermoML archive (doi:10.1021/je034213q).

Conditions: Gas

FC(F)C(F)(F)F [pentafluoroethane]
Conditions | speed of sound [m/s]
277.16 K, 20.94 kPa | 144.94
277.16 K, 40.92 kPa | 144.49
277.16 K, 60.65 kPa | 144.05
277.16 K, 80.97 kPa | 143.59
277.16 K, 101.09 kPa | 143.13
277.16 K, 121.01 kPa | 142.67
277.16 K, 141.08 kPa | 142.2
277.16 K, 161.07 kPa | 141.73
277.16 K, 180.84 kPa | 141.26
277.16 K, 198.8 kPa | 140.83
303.14 K, 10.51 kPa | 151.5
303.14 K, 20.76 kPa | 151.31
303.14 K, 40.75 kPa | 150.97
303.14 K, 60.79 kPa | 150.62
303.14 K, 80.27 kPa | 150.28
303.14 K, 100.78 kPa | 149.93
303.14 K, 120.91 kPa | 149.57
303.14 K, 140.84 kPa | 149.22
303.14 K, 160.84 kPa | 148.87
303.14 K, 180.99 kPa | 148.5
303.14 K, 200.32 kPa | 148.16
303.14 K, 300.92 kPa | 146.32
303.14 K, 398.68 kPa | 144.47
303.14 K, 465.23 kPa | 143.19
313.15 K, 10.5 kPa | 153.84
313.15 K, 20.68 kPa | 153.68
313.15 K, 40.59 kPa | 153.37
313.15 K, 60.28 kPa | 153.06
313.15 K, 80.59 kPa | 152.74
313.15 K, 100.57 kPa | 152.43
313.15 K, 120.77 kPa | 152.11
313.15 K, 140.78 kPa | 151.79
313.15 K, 160.71 kPa | 151.47
313.15 K, 180.78 kPa | 151.14
313.15 K, 200.47 kPa | 150.82
313.15 K, 300.67 kPa | 149.18
313.15 K, 400.7 kPa | 147.49
313.15 K, 480.34 kPa | 146.12
323.14 K, 10.7 kPa | 156.16
323.14 K, 20.42 kPa | 156.02
323.14 K, 40.64 kPa | 155.73
323.14 K, 60.8 kPa | 155.44
323.14 K, 80.84 kPa | 155.16
323.14 K, 100.74 kPa | 154.87
323.14 K, 120.86 kPa | 154.58
323.14 K, 140.92 kPa | 154.29
323.14 K, 160.95 kPa | 154
323.14 K, 180.33 kPa | 153.71
323.14 K, 200.71 kPa | 153.41
323.14 K, 300.75 kPa | 151.93
323.14 K, 400.83 kPa | 150.41
323.14 K, 501.38 kPa | 148.85
343.13 K, 40.76 kPa | 160.33
343.13 K, 60.62 kPa | 160.09
343.13 K, 80.21 kPa | 159.86
343.13 K, 100.97 kPa | 159.61
343.13 K, 120.73 kPa | 159.37
343.13 K, 140.89 kPa | 159.13
343.13 K, 160.51 kPa | 158.89
343.13 K, 180.9 kPa | 158.65
343.13 K, 197.5 kPa | 158.44
343.13 K, 300.29 kPa | 157.19
343.13 K, 400.48 kPa | 155.94
343.13 K, 500.26 kPa | 154.68
343.13 K, 600.3 kPa | 153.41
343.14 K, 20.77 kPa | 160.58
343.14 K, 40.77 kPa | 160.34
343.14 K, 59.94 kPa | 160.11
343.14 K, 80.48 kPa | 159.86
343.14 K, 100.55 kPa | 159.62
343.14 K, 120.9 kPa | 159.38
343.14 K, 140.63 kPa | 159.14
343.14 K, 160.64 kPa | 158.9
343.14 K, 180.84 kPa | 158.65
343.14 K, 200.46 kPa | 158.41
343.14 K, 300.55 kPa | 157.19
343.14 K, 399.77 kPa | 155.96
343.14 K, 501.32 kPa | 154.68
